PMC9532399, “The lysosomal transporter TAPL has a dual role as peptide translocator and phosphatidylserine floppase” (Nature Communications, 2022)
Changes are numbered by the printed parent chain. No end group written: not given here.

T1: mouse TAPL ΔTMD0 (Mus musculus, UniProt Q9JJ59)
T1 construct: thrombin cleavage site (C); eGFP (C); 10XHis (C); made in house; host or cells: Trichoplusia ni High Five (Hi5) insect cells, baculovirus (pVL1393)
T1 sequence (Q9JJ59 143-762): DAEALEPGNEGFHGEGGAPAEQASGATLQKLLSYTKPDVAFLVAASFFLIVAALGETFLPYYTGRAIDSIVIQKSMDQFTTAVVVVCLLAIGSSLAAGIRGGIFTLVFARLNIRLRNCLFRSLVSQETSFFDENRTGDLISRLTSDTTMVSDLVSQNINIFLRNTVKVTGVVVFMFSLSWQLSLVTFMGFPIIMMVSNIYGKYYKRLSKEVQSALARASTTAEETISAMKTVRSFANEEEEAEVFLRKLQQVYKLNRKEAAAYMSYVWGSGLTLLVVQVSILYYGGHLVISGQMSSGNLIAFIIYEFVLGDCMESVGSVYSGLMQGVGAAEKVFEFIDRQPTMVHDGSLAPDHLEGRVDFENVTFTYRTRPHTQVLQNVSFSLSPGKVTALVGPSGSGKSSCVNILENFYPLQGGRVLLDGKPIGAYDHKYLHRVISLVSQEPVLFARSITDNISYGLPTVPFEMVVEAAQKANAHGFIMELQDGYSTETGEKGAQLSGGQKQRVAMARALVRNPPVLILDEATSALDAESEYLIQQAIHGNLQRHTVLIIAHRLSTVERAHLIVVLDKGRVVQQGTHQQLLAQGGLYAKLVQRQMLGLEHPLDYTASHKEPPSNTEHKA

T2: TAPL Y405A mutant (Mus musculus, UniProt Q9JJ59, Y405A)
T2 construct: thrombin cleavage site (C); eGFP (C); 10XHis (C); made in house; host or cells: Trichoplusia ni High Five (Hi5) insect cells, baculovirus (pVL1393)
T2 sequence (Q9JJ59 143-762 Y405A): T1 sequence (Q9JJ59 143-762) with Y263A

T3: mouse TAPL ΔTMD0 Y405A mutant (mouse, UniProt Q9JJ59 143-762, Y405A)
T3 construct: mouse TAPL (ABCB9) lacking the N-terminal 142 residues (TMD0), with Y405A; source: High Five (Hi5) insect cells, baculovirus; DM-purified; not shown: eGFP, C-terminal, cleaved; His10, C-terminal, cleaved
T3 sequence (looked up): T1 sequence (Q9JJ59 143-762) with Y263A

B1: 9-mer peptide RRYQKSTEL (peptide)
peptide: RRYQKSTEL
notes: short synthetic peptide known to be transported by human TAPL; source: synthetic peptide (ANYGEN Co., Ltd.)
B2: mouse TAPL truncation mutant devoid of the N-terminal 142 residues (ΔTMD0) (domain or fragment, UniProt Q9JJ59 143-762, looked up)
chain: T1 sequence (Q9JJ59 143-762)
notes: mouse TAPL (ABCB9), protein of 762 amino acids, lacking the N-terminal 142 residues (TMD0); Homodimer by the cryo-EM structures; A thrombin site stood between TAPL and eGFP-10XHis; residues of the site may be left at the C-terminus after cleavage; also called ABCB9; TAP-like; source: High Five (Hi5) insect cells, baculovirus; purified (anti-GFP DARPin agarose, on-column thrombin cleavage, gel …)
B3: Cy5-labeled 9-mer peptide RRYQNSTC(Cy-5)L (peptide)
peptide: RRYQNSTC(Cy5)L
notes: synthetic 9-mer peptide with a single cysteine for labeling; also called Cy5-labeled peptide; source: synthetic peptide (ANYGEN Co., Ltd.), labeled with Cy5, desalted

Columns and labels:
[1] = target: T1, mouse TAPL ΔTMD0; experiment: Lipid-stimulated ATPase assay, DM-purified ΔTMD0; type: biochemical
Procedure: (§1) The ATPase activities of proteins obtained after various purification procedures were determined by NADH-coupled spectrophotometric assays. 10 μg of DM-purified or nanodisc-reconstituted protein was added to 140 μL of reaction buffer containing 50 mM HEPES–KOH pH 8.0, 60 μg/mL pyruvate kinase (Roche), 16 μg/mL lactate dehydrogenase (Roche), 10 mM phosphoenolpyruvate (Roche), 0.3 mM NADH, 3 mM ATP, 10 mM MgCl2, and 0.17% (w/v) DM in the presence or absence of 250 μM peptide. For proteins reconstituted into nanodiscs, DM was not added to the reaction buffer. For lipid-stimulated ATPase assays, the thin film of lipids was hydrated in 100 μL of buffer containing 50 mM HEPES–KOH pH 8.0 and 10 mM MgCl2 to yield a 10 mM solution. After sonication of the lipid solution for 10 min to decrease its turbidity, the reaction was initiated by adding varying concentrations of lipids to the mixture. ATP hydrolysis activity was monitored at 37 °C for 3 min by measuring the rate of decline of NADH absorbance at 340 nm. To inhibit ATP hydrolysis, the reaction mixture was incubated with 3 mM AMP-PNP or 8 mM NaF/2 mM BeSO4 for 5 min at RT. The kinetic parameters of ATP hydrolysis were calculated by fitting the initial rates of ATP hydrolysis to the Michaelis–Menten equation using PRISM 4.0 (GraphPad software).

[2] = target: T2, TAPL Y405A mutant; experiment: Lipid-stimulated ATPase assay, DM-purified Y405A mutant; type: biochemical; conditions: Y405A vs WT
Procedure: as §1

[3] = target: T1, mouse TAPL ΔTMD0; experiment: Dithionite-based flip-flop (floppase) assay of NBD*-labeled lipids, ΔTMD0 proteoliposomes; type: biochemical; conditions: 10% (mol/mol) unlabeled POPS, or presence of the 9-mer peptide
Procedure: All lipids used in reconstitution were purchased from Avanti Polar Lipids, Inc. (purity > 99%). The in vitro flip–flop assay was performed using NBD* dye-labeled proteoliposomes as described previously. Briefly, E. coli polar lipids and egg PC were mixed in a 1:1 molar ratio, and 0.5% (mol/mol) NBD*-lipid was added. The lipid mixture was then dried under nitrogen gas. The NBD*-lipids used were 18:1-06:0 NBD*-PS (1-oleoyl-2-{6-[(7-nitro-2-1,3-benzoxadiazol-4-yl)amino]hexanoyl}-sn-glycero-3-phosphoserine), 18:1-06:0 NBD*-PC (1-oleoyl-2-{6-[(7-nitro-2-1,3-benzoxadiazol-4-yl)amino]hexanoyl}-sn-glycero-3-phosphocholine), 18:1-06:0 NBD*-PG (1-oleoyl-2-{6-[(7-nitro-2-1,3-benzoxadiazol-4-yl)amino]hexanoyl}-sn-glycero-3-[phospho-rac-(1-glycerol)]), 18:1-06:0 NBD*-PE (1-oleoyl-2-{6-[(7-nitro-2-1,3-benzoxadiazol-4-yl)amino]hexanoyl}-sn-glycero-3-phosphoethanolamine), and 25-NBD*-Cholesterol (25-[N-[(7-nitro-2-1,3-benzoxadiazol-4-yl)methyl]amino]−27-norcholesterol). Thin lipid films were solubilized in 20 mM HEPES–NaOH pH 8.0, 200 mM NaCl and 5% (v/v) glycerol, incubated at RT for 30 min and subjected to 5 freeze–thaw cycles. After extrusion with a Mini-Extruder at 65 °C, final lipid concentrations were determined by phosphorus assays. Briefly, 10 μL of extruded lipid was added to 10 μL of 2% (w/v) ammonium molybdate and 300 μL of concentrated perchloric acid. The mixture was heated at 250 °C for 30 min, then cooled to RT and mixed with 1.5 mL of 0.4% (w/v) ammonium molybdate and 250 μL of 9% (w/v) L-ascorbic acid. It was again heated at 100 °C for 6 min and cooled to RT. Lipid concentrations were calculated from the absorbance at 820 nm using a standard curve prepared with NaH2PO4 solution. After accurately determining the lipid concentration, DM-purified protein and 5 mM lipid suspension (solubilized in 5 mM DM) were mixed 1:25 (w/w). After incubation at 4 °C for 1.5 h, DM detergent was removed with 75 mg Bio-beads SM-2 by periodic gentle shaking for 1 h at 4 °C (Supplementary Fig. 5a). The beads were replaced once, followed by an additional incubation at 4 °C for 2 h to completely remove detergent. The resulting proteoliposomes were collected by ultracentrifugation at 200,000×g for 1.5 h at 4 °C.
To measure the flip–flop activity, 10 μL of 2 mM NBD*-labeled proteoliposomes were added to 100 μL of reaction buffer (20 mM HEPES–NaOH pH 8.0, 200 mM NaCl, 5 mM ATP and 5% (v/v) glycerol) in the presence of 2 mM MgCl2 (or NaCl), and incubated at 37 °C for 1 h. The mixture was transferred to a 96-well plate and time-dependent fluorescence (λex/λem = 460/538 nm) was recorded every 30 s for 26 min using a fluorescence spectrophotometer (Gemini XPS). After the baseline fluorescence had stabilized, 10 mM sodium dithionite was added to quench the fluorescence of NBD*-lipid present in the outer leaflets of the liposomes. The initial rapid drop and subsequent slow decline in fluorescence intensity were monitored. When a new steady state was established, 1% (v/v) Triton X-100 was added to completely disrupt the liposomes. The net percentage of NBD*-lipid translocated across the lipid bilayer was calculated from the following equation[72]: the percentage of protected NBD*-lipid in the inner leaflet = [(FD−F0)/(FT−F0)]×100, and that of accessible NBD*-lipid in the outer leaflet = [(FT−FD)/(FT−F0)]×100, where FT is the total fluorescence of the sample before the addition of dithionite, FD is the fluorescence of the sample after quenching with dithionite, and F0 is any residual fluorescence of the sample after solubilization with Triton X-100. Fluorescence values (FT, FD, F0) were calculated as the averages of 5 points on the respective plateau lines. The ΔTMD0-mediated lipid floppase activity was determined by subtracting the percentage of NBD*-lipid fluorescence measured in the presence of Na^+/ATP from that measured in the presence of Mg^2+/ATP.

[4] = target: B2; experiment: cryo-EM structure; DM/CHS-purified ΔTMD0 with 1 mM 9-mer peptide, on ice for 30 min; inward-facing, 4.0 Å; conditions: both partners purified
[5] = target: the molecule itself; experiment: cryo-EM structure; ΔTMD0 in nanodiscs of E. coli polar lipids, no peptides or nucleotides; inward-facing, 3.4 Å
[6] = target: T3, mouse TAPL ΔTMD0 Y405A mutant; experiment: MST; 0.2 μM Cy5-labeled peptide with serial 2-fold dilutions of DM-purified protein, 10 min at RT; Monolith NT.115 pico; conditions: both partners purified
[7] = target: B2; experiment: as above; conditions: both partners purified
[8] = lipid stimulation, 3 mM ATP, means ± SEM

CC(C)CCC[C@@H](C)[C@H]1CC[C@H]2[C@@H]3CC=C4C[C@@H](OC(=O)CCC(=O)O)CC[C@]4(C)[C@H]3CC[C@]12C [CHS, cholesteryl hemisuccinate]
Vmax relative to POPG-stimulated ATPase activity ([1]; CHS vs POPG): ~ 51%
maximal ATPase activity (turnover) ([1]; lipid stimulation, 3 mM ATP): 80 min⁻¹
Km [1, 8]: 127 ± 28 µM
maximal ATPase activity (Vmax) [1, 8]: 589 ± 18 nmol/mg/min
response of Y405A ATPase to lipid [2]: significantly reduced basal and lipid-stimulated ATPase activity

CCCCCCCC/C=C\CCCCCCCC(=O)O[C@H](COC(=O)CCCCCCCCCCCCCCC)COP(=O)(O)OC[C@H](N)C(=O)O [POPS, 1-palmitoyl-2-oleoyl-sn-glycero-3-phospho-l-serine]
effect on translocation of NBD*-PS [3]: significantly inhibited
maximal ATPase activity (turnover) ([1]; lipid stimulation, 3 mM ATP): 109 min⁻¹
maximal ATPase activity (Vmax) [1, 8]: 808 ± 44 nmol/mg/min
response of Y405A ATPase to lipid [2]: significantly reduced basal and lipid-stimulated ATPase activity

B1
binding result [4]: binds

B2
stoichiometry N [5]: 2

B3
Kd [6]: 3.8 µM
Kd [7]: 0.0519 µM
